Values quoted from earlier work, collected in US12514855B2 (IRR, Inc., priority 2020, dated 2026).

Tests used:
[1] = test system: histamine induced wheal and flare
[2] = in vivo
H1 receptor = H1 receptor (Homo sapiens, UniProt P35367); conditions: in an acidic pH
[3] = in vivo; remark: listed apart in the source
[4] = with warfarin, theophylline, digoxin, terfenadine, oral contraceptives, or prednisone
[5] = airway epithelial cells from nose and lung

Chain of H1 receptor (P35367 whole entry): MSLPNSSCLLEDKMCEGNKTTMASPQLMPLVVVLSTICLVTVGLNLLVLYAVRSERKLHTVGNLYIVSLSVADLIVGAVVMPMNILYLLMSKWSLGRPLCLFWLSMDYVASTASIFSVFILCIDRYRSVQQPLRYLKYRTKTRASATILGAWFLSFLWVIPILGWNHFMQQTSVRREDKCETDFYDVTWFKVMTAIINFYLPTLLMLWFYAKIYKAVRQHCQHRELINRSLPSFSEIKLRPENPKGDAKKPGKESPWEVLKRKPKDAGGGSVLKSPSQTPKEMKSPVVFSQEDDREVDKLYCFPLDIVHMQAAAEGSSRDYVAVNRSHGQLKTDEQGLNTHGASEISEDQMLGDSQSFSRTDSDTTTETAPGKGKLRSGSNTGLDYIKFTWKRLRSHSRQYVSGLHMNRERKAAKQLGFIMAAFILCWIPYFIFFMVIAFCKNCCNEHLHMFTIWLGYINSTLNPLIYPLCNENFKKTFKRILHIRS

Structure (SMILES)	potency through histamine induced wheal and flare data ([1]; compared with modern generation antihistamines)	effectiveness versus fexofenadine ([1]; levocetirizine 5 mg per day vs fexofenadine 180 mg per day)	HRV viral replication (human rhinovirus (HRV); [5])	HRV-induced ICAM-1 (human rhinovirus (HRV); [5])	HRV-induced cytokine expression (human rhinovirus (HRV); [5])	levels of HRV-induced increases in ICAM-1 (human rhinovirus (HRV); levocetirizine added before, after, or at the time of the HRV infection)	time to steady state level [2]	receptor affinity over first generation mepyramine (H1 receptor)	dose that can be safely administered [3]	drug interactions [4]
O=C(O)COCCN1CCN([C@H](c2ccccc2)c2ccc(Cl)cc2)CC1 [levocetirizine]	most potent of the five modern generation antihistamines	more effective than fexofenadine	inhibit	inhibit	inhibit	reduced	40 h	5 ×	up to 30 mg/day	–
CC(C)(O)c1ccccc1CC[C@@H](SCC1(CC(=O)O)CC1)c1cccc(/C=C/c2ccc3ccc(Cl)cc3n2)c1 [montelukast]	–	–	–	–	–	–	–	–	–	no drug interactions
